# Source: patent publication US12404283B2, “c-MYC mRNA translation modulators and uses thereof in the treatment of cancer” (Anima Biotech Inc., priority 2022, dated 2025)
# Structures can show the parent of a compound that is named as a salt.
# System: c-Myc
# Experiment: c-Myc immunofluorescence assay
# Assay type: cell-based, human
# Settings: A549 cells, 24 hours treatment, anti-c-Myc immunofluorescence
# Protocol: A549 human non-small cell lung carcinoma cells were treated for 24 hours with increasing compound concentration, cells were fixed and stained with a nuclei stain (DAPI) and anti-c-Myc fluorescent antibody. The c-Myc signal was quantified by image analysis, and data was exported and analyzed using TIBCO Spotfire® (TIBCO Corporation). Dose response curves were generated and fitted with logaristic regression to calculate potency (EC50 values). Potency values are presented in Table 2 for all compounds and are shown for selected compounds (FIG. 4).
# A549 cells were grown in 384-wells plates (Perkin Elmer, Cat. 6057300) for 48 hours, treated with compounds and then fixed for 20 min in 4% paraformaldehyde. After that permeabilization was done using 0.1% Triton X-100 in PBS for 20 min. Primary anti-c-Myc antibody (Abcam, ab32072) staining was performed for 90 min at room temperature. Cells then were washed twice with PBS and incubated with secondary antibody (Abcam, ab150075) for 90 min at room temperature. Nuclei were stained with DAPI for 10 min and washed twice with PBS.
# Cell images were taken with Operetta (Perkin Elmer, USA), a wide-field fluorescence microscope at 20× magnification. After acquisition, the images were transferred to Columbus software (Perkin-Elmer) for image analysis. In Columbus, cells were identified by their nucleus, using the “Find Nuceli” module and cytoplasm was detected based on the secondary antibody channel. Subsequently, the fluorescent signal was enumerated in the identified cell region. Then data was exported to a data analysis and visualization software, Tibco Spotfire, USA.
row,Structure (SMILES),Myc Efficacy (−LogEC50)
1,"O=C(NC1CCOCC1)c1ccc2c(c1)sc1nc(-c3ccc(C4COCCN4)cc3F)cn12 (stereo not drawn) [Compound 534, 2-(2-fluoro-4-(morpholin-3-yl)phenyl)-N-(tetrahydro-2H-pyran-4-yl)benzo[d]imidazo[2,1-b]thiazole-7-carboxamide]",+++ (+++ ≥6)
2,"O=C(NC1CCOCC1)c1ccc2c(c1)sc1nc(-c3ccc(C4CNCCO4)cc3F)cn12 (stereo not drawn) [Compound 535, 2-(2-fluoro-4-(morpholin-2-yl)phenyl)-N-(tetrahydro-2H-pyran-4-yl)benzo[d]imidazo[2,1-b]thiazole-7-carboxamide]",+++ (+++ ≥6)
3,"CN1CCC(NC(=O)c2ccc3c(c2)sc2nc(-c4ccc(C5(F)CCNCC5)cc4F)cn23)CC1 [Compound 536, 2-(2-fluoro-4-(4-fluoropiperidin-4-yl)phenyl)-N-(1-methylpiperidin-4-yl)benzo[d]imidazo[2,1-b]thiazole-7-carboxamide]",+++ (+++ ≥6)
4,"O=C1CNC(c2ccc(-c3cn4c(n3)sc3cc(C(=O)NC5CCOCC5)ccc34)c(F)c2)C1 (stereo not drawn) [Compound 537, 2-(2-fluoro-4-(4-oxopyrrolidin-2-yl)phenyl)-N-(tetrahydro-2H-pyran-4-yl)benzo[d]imidazo[2,1-b]thiazole-7-carboxamide]",+++ (+++ ≥6)
5,"NC(CO)c1ccc(-c2cn3c(n2)sc2cc(C(=O)NCCCN4CCC(F)CC4)ccc23)c(F)c1 (stereo not drawn) [Compound 539, 2-(4-(1-amino-2-hydroxyethyl)-2-fluorophenyl)-N-(3-(4-fluoropiperidin-1-yl)propyl)benzo[d]imidazo[2,1-b]thiazole-7-carboxamide]",+++ (+++ ≥6)
6,"O=C(NCCCN1CCC(F)CC1)c1ccc2c(c1)sc1nc(-c3ccc(C4CC(C(F)F)CN4)cc3F)cn12 (stereo not drawn) [Compound 542, 2-(4-(4-(difluoromethyl)pyrrolidin-2-yl)-2-fluorophenyl)-N-(3-(4-fluoropiperidin-1-yl)propyl)benzo[d]imidazo[2,1-b]thiazole-7-carboxamide]",+++ (+++ ≥6)
7,"O=C(NCCCN1CCC(F)CC1)c1ccc2c(c1)sc1nc(-c3ccc(C4CCNO4)cc3F)cn12 (stereo not drawn) [Compound 543, 2-(2-fluoro-4-(isoxazolidin-5-yl)phenyl)-N-(3-(4-fluoropiperidin-1-yl)propyl)benzo[d]imidazo[2,1-b]thiazole-7-carboxamide]",+++ (+++ ≥6)
8,"CN1CCC(NC(=O)c2ccc3c(c2)sc2nc(-c4ccc(N5CCNCC5)cc4F)cn23)CC1 [Compound 547, 2-(2-fluoro-4-(piperazin-1-yl)phenyl)-N-(1-methylpiperidin-4-yl)benzo[d]imidazo[2,1-b]thiazole-7-carboxamide]",+++ (+++ ≥6)
9,"CC(=O)Nc1ccc2c(c1)sc1nc(-c3ccc(C4CCCN4)cc3F)cn12 (stereo not drawn) [Compound 548, N-(2-(2-fluoro-4-(pyrrolidin-2-yl)phenyl)benzo[d]imidazo[2,1-b]thiazol-7-yl)acetamide]",+++ (+++ ≥6)
10,"CN1CCC(C(=O)Nc2ccc3c(c2)sc2nc(-c4ccc(C5CCCN5)cc4F)cn23)CC1 (stereo not drawn) [Compound 593, N-(2-(2-fluoro-4-(pyrrolidin-2-yl)phenyl)benzo[d]imidazo[2,1-b]thiazol-7-yl)-1-methylpiperidine-4-carboxamide dihydrochloride]",+++ (+++ ≥6)
11,"O=C(Nc1ccc2c(c1)sc1nc(-c3ccc(C4CCCN4)cc3F)cn12)C1CCOCC1 (stereo not drawn) [Compound 594, N-(2-(2-fluoro-4-(pyrrolidin-2-yl)phenyl)benzo[d]imidazo[2,1-b]thiazol-7-yl)tetrahydro-2H-pyran-4-carboxamide hydrochloride]",+++ (+++ ≥6)
12,"O=C(NCCCN1CCC(F)CC1)c1ccc2c(c1)sc1nc(-c3cc4c(cc3F)CCNC4)cn12 [Compound 600, 2-(6-fluoro-1,2,3,4-tetrahydroisoquinolin-7-yl)-N-(3-(4-fluoropiperidin-1-yl)propyl)benzo[d]imidazo[2,1-b]thiazole-7-carboxamide dihydrochloride]",+++ (+++ ≥6)
13,"O=C(NCCCN1CCC(F)CC1)c1ccc2c(c1)sc1nc(-c3cc4c(cc3F)NCC4)cn12 [Compound 602, 2-(6-fluoroindolin-5-yl)-N-(3-(4-fluoropiperidin-1-yl)propyl)benzo[d]imidazo[2,1-b]thiazole-7-carboxamide]",+++ (+++ ≥6)
14,"O=C(NCCCN1CCCCC1)c1ccc2c(c1)sc1nc(-c3ccccc3)cn12 [compound 101, 2-phenyl-N-(3-(piperidin-1-yl)propyl)benzo[d]imidazo[2,1-b]thiazole-7-carboxamide]",+++ (+++ ≥6)
15,"Cc1ccc(-c2cn3c(n2)sc2cc(C(=O)N4CCCCCC4)ccc23)cc1 [compound 102, Azepan-1-yl(2-(p-tolyl)benzo[d]imidazo[2,1-b]thiazol-7-yl)methanone]",+ (+ >3 and <5)
16,"O=C(NCCCN1CCCCCC1)c1ccc2c(c1)sc1nc(-c3ccccc3)cn12 [compound 103, N-(3-(azepan-1-yl)propyl)-2-phenylbenzo[d]imidazo[2,1-b]thiazole-7-carboxamide]",+++ (+++ ≥6)
17,"O=C(c1ccc2c(c1)sc1nc(-c3ccc(F)cc3)cn12)N1CCCCCC1 [compound 104, azepan-1-yl(2-(4-fluorophenyl)benzo[d]imidazo[2,1-b]thiazol-7-yl)methanone]",+ (+ >3 and <5)
18,"CCCSCCCNC(=O)c1ccc2c(c1)sc1nc(-c3ccc(F)cc3)cn12 [compound 105, 2-(4-fluorophenyl)-N-(3-(propylthio)propyl)benzo[d] imidazo[2,1-b]thiazole-7-carboxamide]",+ (+ >3 and <5)
19,"CCOc1ccc(-c2cn3c(n2)sc2cc(C(=O)N4CCCCCC4)ccc23)cc1 [compound 106, azepan-1-yl(2-(4-ethoxyphenyl)benzo[d]imidazo[2,1-b]thiazol-7-yl)methanone]",+ (+ >3 and <5)
20,"CCN(CC)CCCNC(=O)c1ccc2c(c1)sc1nc(-c3ccccc3)cn12 [compound 107, N-(3-(diethylamino)propyl)-2-phenylbenzo[d]imidazo [2,1-b]thiazole-7-carboxamide]",++ (++ ≥5 and <6)
21,"CCCNC(=O)c1ccc2c(c1)sc1nc(-c3ccc(C)cc3)cn12 [compound 108, N-propyl-2-(p-tolyl)benzo[d]imidazo[2,1-b]thiazole-7-carboxamide]",++ (++ ≥5 and <6)
22,"CCNC(=O)c1ccc2c(c1)sc1nc(-c3ccc(C)cc3)cn12 [compound 109, N-ethyl-2-(p-tolyl)benzo[d]imidazo[2,1-b]thiazole-7-carboxamide]",++ (++ ≥5 and <6)
23,"CC(=O)NCCCNC(=O)c1ccc2c(c1)sc1nc(-c3ccc(C)cc3)cn12 [compound 110, N-(3-acetamidopropyl)-2-(p-tolyl)benzo[d]imidazo[2,1-b]thiazole-7-carboxamide]",− (− ≤3)
24,"CCN(CC)CCCNC(=O)c1ccc2c(c1)sc1nc(-c3ccc(Cl)cc3)cn12 [compound 111, 2-(4-chlorophenyl)-N-(3-(diethylamino)propyl)benzo [d]imidazo[2,1-b]thiazole-7-carboxamide]",++ (++ ≥5 and <6)
25,"Cc1ccc(-c2cn3c(n2)sc2cc(C(=O)NC[C@H]4CCNC4)ccc23)cc1 [compound 114, (S)-N-(pyrrolidin-3-ylmethyl)-2-(p-tolyl)benzo[d]imidazo[2,1-b]thiazole-7-carboxamide formate]",++ (++ ≥5 and <6)
26,"Cc1ccc(-c2cn3c(n2)sc2cc(C(=O)NCCCN)ccc23)cc1 [compound 115, N-(3-aminopropyl)-2-(p-tolyl)benzo[d]imidazo[2,1-b]thiazole-7-carboxamide]",+ (+ >3 and <5)
27,"Cc1ccc(-c2cn3c(n2)sc2cc(C(=O)NC[C@@H]4CCNC4)ccc23)cc1 [compound 116, (R)-N-(pyrrolidin-3-ylmethyl)-2-(p-tolyl)benzo[d]imidazo [2,1-b]thiazole-7-carboxamide formate]",++ (++ ≥5 and <6)
28,"Cc1ccc(-c2cn3c(n2)sc2cc(C(=O)NCC4CNC4)ccc23)cc1 [compound 117, N-(azetidin-3-ylmethyl)-2-(p-tolyl)benzo[d]imidazo [2,1-b]thiazole-7-carboxamide]",+ (+ >3 and <5)
29,"CCN(CC)CCCNC(=O)c1ccc2c(c1)sc1nc(-c3cccc(C)c3)cn12 [compound 118, N-(3-(diethylamino)propyl)-2-(m-tolyl)benzo[d]imidazo [2,1-b]thiazole-7-carboxamide]",+++ (+++ ≥6)
30,"CCN1CCC[C@H]1CNC(=O)c1ccc2c(c1)sc1nc(-c3cccc(OC)c3)cn12 [compound 119, (S)-N-((1-ethylpyrrolidin-2-yl)methyl)-2-(3-methoxyphenyl)benzo[d] imidazo[2,1-b]thiazole-7-carboxamide]",++ (++ ≥5 and <6)
